According to PubChem BioAssay (NCI):
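Assay format: 96-well plates, 48-hour exposure. GI50 marks 50% less growth. The concentration for full growth arrest is given as TGI.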

Tests used:
Assay in all cases: NCI tumour cell line growth inhibition, 48 h
U251 CNS = tested on: U251 CNS
SF-295 CNS = tested on: SF-295 CNS
KM12 colon = tested on: KM12 colon
K-562 leukemia = tested on: K-562 leukemia
CAKI-1 renal = tested on: CAKI-1 renal
HS 578T breast = tested on: HS 578T breast
UACC-62 melanoma = tested on: UACC-62 melanoma
ACHN renal = tested on: ACHN renal
SF-539 CNS = tested on: SF-539 CNS
OVCAR-3 ovarian = tested on: OVCAR-3 ovarian
SK-MEL-28 melanoma = tested on: SK-MEL-28 melanoma
HCT-116 colon = tested on: HCT-116 colon
SK-OV-3 ovarian = tested on: SK-OV-3 ovarian
IGROV1 ovarian = tested on: IGROV1 ovarian
NCI/ADR-RES ovarian = tested on: NCI/ADR-RES ovarian
MDA-MB-231 breast = tested on: MDA-MB-231 breast
SNB-75 CNS = tested on: SNB-75 CNS
LOX IMVI melanoma = tested on: LOX IMVI melanoma
HL-60(TB) leukemia = tested on: HL-60(TB) leukemia
CCRF-CEM leukemia = tested on: CCRF-CEM leukemia
A498 renal = tested on: A498 renal
UO-31 renal = tested on: UO-31 renal
HT29 colon = tested on: HT29 colon
MOLT-4 leukemia = tested on: MOLT-4 leukemia
SK-MEL-2 melanoma = tested on: SK-MEL-2 melanoma
TK-10 renal = tested on: TK-10 renal
EKVX NSCLC = tested on: EKVX NSCLC
NCI-H23 lung = tested on: NCI-H23 lung
COLO 205 colon = tested on: COLO 205 colon

Molecule `c1ccc2nc(N/N=C3\CCCCC3C3CCCCC3)ccc2c1` (configuration not stated) has a GI50 (U251 CNS) of 6.44 µM, a TGI (U251 CNS) of 20.8 µM and a GI50 (SF-295 CNS) of 2.4 µM. It also gave a TGI (SF-295 CNS) of 11.8 µM, a GI50 (KM12 colon) of 4.27 µM and a TGI (KM12 colon) of 15.7 µM. For the same molecule, the GI50 (K-562 leukemia) was 4.85 µM, the TGI (K-562 leukemia) was greater than 100 µM and the GI50 (CAKI-1 renal) was 4.78 µM. It also gave a TGI (CAKI-1 renal) of 25.3 µM, a GI50 (HS 578T breast) of 10.4 µM and a TGI (HS 578T breast) of 30.9 µM. It also gave a GI50 (UACC-62 melanoma) of 3.89 µM, a TGI (UACC-62 melanoma) of 15.6 µM and a GI50 (ACHN renal) of 8.02 µM. It also gave a TGI (ACHN renal) of 20.8 µM, a GI50 (SF-539 CNS) of 7.69 µM and a TGI (SF-539 CNS) of 21.4 µM. For the same molecule, the GI50 (OVCAR-3 ovarian) was 13.9 µM, the TGI (OVCAR-3 ovarian) was 27 µM and the GI50 (SK-MEL-28 melanoma) was 10.9 µM. For the same molecule, the TGI (SK-MEL-28 melanoma) was 24.9 µM, the GI50 (HCT-116 colon) was 3.32 µM and the TGI (HCT-116 colon) was 13.5 µM. It also gave a GI50 (SK-OV-3 ovarian) of 14.8 µM, a TGI (SK-OV-3 ovarian) of 34.3 µM and a GI50 (IGROV1 ovarian) of 2.92 µM. The TGI (IGROV1 ovarian) was 15.4 µM, the GI50 (NCI/ADR-RES ovarian) was 5.29 µM and the TGI (NCI/ADR-RES ovarian) was 21 µM. The GI50 (MDA-MB-231 breast) was 5.49 µM, the TGI (MDA-MB-231 breast) was 20.5 µM and the GI50 (SNB-75 CNS) was 11.1 µM. It also gave a TGI (SNB-75 CNS) of 30.9 µM, a GI50 (LOX IMVI melanoma) of 3.25 µM and a TGI (LOX IMVI melanoma) of 13.1 µM. For the same molecule, the GI50 (HL-60(TB) leukemia) was 3.74 µM, the TGI (HL-60(TB) leukemia) was 25.6 µM and the GI50 (CCRF-CEM leukemia) was 2.83 µM. It also gave a TGI (CCRF-CEM leukemia) of 14 µM, a GI50 (A498 renal) of 11.4 µM and a TGI (A498 renal) of 27.9 µM. For the same molecule, the GI50 (UO-31 renal) was 2.89 µM, the TGI (UO-31 renal) was 14.4 µM and the GI50 (HT29 colon) was 3.7 µM. For the same molecule, the TGI (HT29 colon) was 14.6 µM, the GI50 (MOLT-4 leukemia) was 3.2 µM and the TGI (MOLT-4 leukemia) was 17.1 µM. It also gave a GI50 (SK-MEL-2 melanoma) of 3.48 µM, a TGI (SK-MEL-2 melanoma) of 16.6 µM and a GI50 (TK-10 renal) of 6.72 µM. For the same molecule, the TGI (TK-10 renal) was 19.5 µM, the GI50 (EKVX NSCLC) was 5.22 µM and the TGI (EKVX NSCLC) was 20.2 µM. It also gave a GI50 (NCI-H23 lung) of 3.89 µM, a TGI (NCI-H23 lung) of 17.3 µM and a GI50 (COLO 205 colon) of 3.26 µM.
